Marks after values point to notes of the source that are not given here.
Columns and labels:
[1] = test system: colon cancer SW1116 cells; test: Growth inhibition on tumor cells (MTT); assay type: cell-based; details: Homo sapiens
Method: (§1) The cells of human cervical carcinoma Hela, lung cancer A549, gastric cancer SGC7901, liver cancer HepG2, myeloid leukemia HL-60 and colon cancer SW1116 are cultured in DMEM or RPMI 1640 medium (containing 10% inactived fetal bovine serum, 100 U·ml^−1 penicillin and 100 mg·l^−1 streptomycin) in a humidified 5% CO2 atmosphere at […]. The cells in logarithmic phase are collected, inoculated into 96-well plate at a density of 3×10^3/well (each well of 100 μl), and cultured for 24 h under 37° C., 5% CO2 and saturated humidity condition. A negative control group (culture solution) and administration groups with different concentrations are set up for the test. 1-300 nmol/1 bufalin or bufalin liposome (prepared according to the method of Example 1) is added into each culture well, followed by culturing in an incubator under 37° C., 5% CO2 and saturated humidity for 48 h, adding 20 μl of MTT solution (5 g/l) into each well, culturing for 4 h, and centrifuging. The supernatant was aspirated, and 150 μl dimethyl sulfoxide (DMSO) is added to each well and slightly shaking to dissolve crystal. The OD values are measured at 570 nm by an automatic microplate reader, and the cell growth inhibition rates are calculated according to following formula: cell growth inhibition rate/%=100−(OD value of administration group-OD value of blank control group)/(OD value of control group-OD value of bland control group)×100. IC50 (drug concentration at 50% inhibition on cell proliferation) value is calculated using mathematical method. Data are expressed as X±SEM. Statistical significance (P<0.05) for each variable is estimated by Student's t-test or ANOVA analysis.

[2] = test system: gastric cancer SGC7901 cells; test: Growth inhibition on tumor cells (MTT); assay type: cell-based; details: Homo sapiens
Method: as §1

[3] = test system: human cervical carcinoma Hela cells; test: Growth inhibition on tumor cells (MTT); assay type: cell-based; details: 48 h
Method: as §1

liver cancer HepG2 cells = test: Growth inhibition on tumor cells (MTT); assay type: cell-based; details: Homo sapiens
Method: as §1

lung cancer A549 cells = test: Growth inhibition on tumor cells (MTT); assay type: cell-based; details: Homo sapiens
Method: as §1

[4] = test system: myeloid leukemia HL-60 cells; test: Growth inhibition on tumor cells (MTT); assay type: cell-based; details: Homo sapiens
Method: as §1

[5] = Evaluation of acute toxicities in mice (LD50, Bliss method); details: mouse, in vivo, ip; male Balb/c mice, intraperitoneal, observed 7 days; dose as amount of bufalin; read-out: half-lethal dose (LD50)
Method: Male Balb/c mice (20-25 g) are purchased from the Laboratory Animal Center of Fourth Military Medical University. Bufalin is dissolved with anhydrous ethanol first, and then diluted with normal saline to 0.2 mg/ml (the final concentration of ethanol is below 1%). Bufalin liposome (prepared according to the method of Example 1) is directly dissolved in normal saline to obtain 0.2 mg/ml solution. 10 animals of each group are intraperitoneally injected with bufalin or bufalin liposome at dosages of 0.5, 1, 2, 4 and 6 mg/kg respectively (the dosage is the amount of bufalin in liposome, and the actual dosage of liposome is calculated from encapsulation efficiency). The mortality of mice, the toxic effect and any adverse reactions such as diarrhea, weight loss and behavior change are observed continuously for 7 days. The half-lethal dose (LD50) is calculated using graphical Bliss method.

[6] = test system: HepG2 tumour bearing mice; test: In vivo therapeutic effect on liver cancer, HepG2 tumour bearing nude mice; design: species or system mouse; details: i.p. daily, 1 mg/kg bufalin or 1 ml/kg Huachasu
Method: Human hepatocellular carcinoma cells, HepG2, are cultured in DMEM medium supplemented with 10% FBS, 100 U/ml penicillin G, and 100 μg/ml streptomycin in a humidified 5% CO2 atmosphere at 37° C. Male BALB/c nude mice (6-week-aged) are fed in pathogen-free conditions. The bufalin liposome is prepared according to the method of Example 1. Exponentially growing HepG2 cells are collected, and prepared into cell suspension with PBS. 0.2 ml of the cell suspension (2×10^7 cells) is injected subcutaneously into the right back of each mouse. When the tumor grows to 100 mm^3 (about one week), the mice are randomly divided into 4 groups (8 mice for each group), and intraperitoneally injected with 0.9% normal saline (control group), bufalin or bufalin liposome at the same dosage (Example 1, 1 mg/kg, the dosage is the amount of bufalin in liposome, and the actual dosage of liposome is calculated from encapsulation efficiency) and Huachasu injection (1 ml/kg, the dosage is obtained by converting clinically commonly used dosage into mouse administration dosage) respectively every day. […] The tumor volume is calculated according to the formula: V(mm^3)=(maximal diameter×minimal diameter^2)/2. After 14 days, the mice are sacrificed in anesthesia with overdose of pentobarbital sodium, followed by completely stripping the tumor body and weighing, and calculating the tumor inhibition rate by: tumor inhibition rate (%)=(average tumor weight of control group-average tumor weight of administration group)/average tumor weight of control group×100. Data are expressed as X±SEM, and statistically processed via t-test or variance analysis.

[7] = test system: mice bearing L1210 leukemia; test: Therapeutic effect on mice bearing L1210 leukemia; assay type: in vivo, mouse; details: ICR mice, i.p. daily, 1 mg/kg bufalin or 1 ml/kg Huachasu
Method: Mouse L1210 leukemia cells are subcultured intraperitoneally in ICR mouse. The bufalin liposome is prepared according to the method of Example 1. Male ICR mice (weight of 20±2 g, 5 mice in each cage) are fed in an animal room under alternative 12-hour illumination and 12-hour darkness at a constant temperature of 25° C. and allowed free access to standard laboratory diet. The mice are inoculated intraperitoneally with 1×10^5 L1210 leukemia cell suspension under sterile condition, and randomly divided into 4 groups (10 mice for each group). After 24 h, each group is intraperitoneally injected with 0.9% normal saline (control group), bufalin or bufalin liposome at the same dosage (obtained by Example 1, 1 mg/kg, the dosage is the amount of bufalin in liposome, and the actual dosage of liposome is calculated from encapsulation efficiency) and Huachasu injection (1 ml/kg, the dosage is obtained by converting clinically commonly used dosage into mouse administration dosage) respectively every day. The survival situations of mice within 35 days are observed and recorded, and the life extension rate is calculated. Life extension rate (%)=(average survival time of administration group/average survival time of control group-1)×100. Data are expressed as X±SEM. Statistical significance (P<0.05) for each variable was estimated by Student's t-test or ANOVA analysis.

[8] = test system: patient with liver cancer or pancreas cancer; test: Clinical tolerance of Huachasu injection (literature, Meng Z. et al.); assay type: in vivo, human; details: worked out from the Huachasu injection dose and its bufalin content
Description: At present, a Huachasu injection, prepared by dissolving Venenum Bufonis in normal saline, has been used for the clinical treatment of cancer in China. It has been reported that the combination of gemcitabine-oxaliplatin with Huachasu can enhance the chemotherapeutic effect in the treatment of patients with advanced gallbladder cancer (Qin T J, et al. World J Gastroenterol. 2008, 14(33):5210-6). […] However, the Huachasu injection is a mixture solution of alkaloids in Venenum Bufonis, and the content of bufalin contained therein is very low due to the poor water solubility of bufalin.

## C[C@]12CC[C@H](O)C[C@H]1CC[C@@H]1[C@@H]2CC[C@]2(C)[C@@H](c3ccc(=O)oc3)CC[C@]12O [bufalin, 3β,14-dihydroxy-5β, 20(22)-bufadienolide]
[1]; SW 1116, SW1116, 1 nmol/l, 48 h, read-out: Inhibition rate (%)
  inhibition at 0.001 µM: 1.9 ± 0.3%
[1]; SW 1116, SW1116, 3 nmol/l, 48 h, read-out: Inhibition rate (%)
  inhibition at 0.003 µM: 2.7 ± 0.1%
[1]; SW 1116, SW1116, 10 nmol/l, 48 h, read-out: Inhibition rate (%)
  inhibition at 0.01 µM: 18 ± 3.9%
[1]; SW 1116, SW1116, 30 nmol/l, 48 h, read-out: Inhibition rate (%)
  inhibition at 0.03 µM: 42.7 ± 6.3%
[1]; SW 1116, SW1116, 100 nmol/l, 48 h, read-out: Inhibition rate (%)
  inhibition at 0.1 µM: 73.1 ± 8.8%
[1]; SW 1116, SW1116, 300 nmol/l, 48 h, read-out: Inhibition rate (%)
  inhibition at 0.3 µM: 99.4 ± 11.6%
[1]; SW 1116, SW1116, 48 h
  IC50: 30.6 nM
[2]; SGC-7901, 1 nmol/l, 48 h, read-out: Inhibition rate (%)
  inhibition at 0.001 µM: 3.1 ± 0.5%
[2]; SGC-7901, 3 nmol/l, 48 h, read-out: Inhibition rate (%)
  inhibition at 0.003 µM: 3.9 ± 0.8%
[2]; SGC-7901, 10 nmol/l, 48 h, read-out: Inhibition rate (%)
  inhibition at 0.01 µM: 23.7 ± 3.6%
[2]; SGC-7901, 30 nmol/l, 48 h, read-out: Inhibition rate (%)
  inhibition at 0.03 µM: 45.9 ± 6.5%
[2]; SGC-7901, 100 nmol/l, 48 h, read-out: Inhibition rate (%)
  inhibition at 0.1 µM: 85.6 ± 10.2%
[2]; SGC-7901, 300 nmol/l, 48 h, read-out: Inhibition rate (%)
  inhibition at 0.3 µM: 97.9 ± 11.3%
[2]; SGC-7901, 48 h
  IC50: 23.5 nM
[3]; 1 nmol/l, read-out: Inhibition rate (%)
  inhibition at 0.001 µM: 3.8 ± 2%
[3]; 3 nmol/l, read-out: Inhibition rate (%)
  inhibition at 0.003 µM: 9.6 ± 8.2%
[3]; 10 nmol/l, read-out: Inhibition rate (%)
  inhibition at 0.01 µM: 33.9 ± 4.5%
[3]; 30 nmol/l, read-out: Inhibition rate (%)
  inhibition at 0.03 µM: 56.3 ± 8.2%
[3]; 100 nmol/l, read-out: Inhibition rate (%)
  inhibition at 0.1 µM: 90.3 ± 10.7%
[3]; 300 nmol/l, read-out: Inhibition rate (%)
  inhibition at 0.3 µM: 95.1 ± 6.9%
[3]
  IC50: 17.1 nM
Liver cancer HepG2 cells; HepG2, 1 nmol/l, 48 h, read-out: Inhibition rate (%)
  inhibition at 0.001 µM: 5.3 ± 2.2%
Liver cancer HepG2 cells; HepG2, 3 nmol/l, 48 h, read-out: Inhibition rate (%)
  inhibition at 0.003 µM: 6.1 ± 2.3%
Liver cancer HepG2 cells; HepG2, 10 nmol/l, 48 h, read-out: Inhibition rate (%)
  inhibition at 0.01 µM: 30.2 ± 2.9%
Liver cancer HepG2 cells; HepG2, 30 nmol/l, 48 h, read-out: Inhibition rate (%)
  inhibition at 0.03 µM: 49.8 ± 8.3%
Liver cancer HepG2 cells; HepG2, 100 nmol/l, 48 h, read-out: Inhibition rate (%)
  inhibition at 0.1 µM: 69.8 ± 7.5%
Liver cancer HepG2 cells; HepG2, 300 nmol/l, 48 h, read-out: Inhibition rate (%)
  inhibition at 0.3 µM: 87.7 ± 9.6%
Liver cancer HepG2 cells; HepG2, 48 h
  IC50: 33 nM
Lung cancer A549 cells; A549, 1 nmol/l, 48 h, read-out: Inhibition rate (%)
  inhibition at 0.001 µM: 2 ± 0.2%
Lung cancer A549 cells; A549, 3 nmol/l, 48 h, read-out: Inhibition rate (%)
  inhibition at 0.003 µM: 8.5 ± 1%
Lung cancer A549 cells; A549, 10 nmol/l, 48 h, read-out: Inhibition rate (%)
  inhibition at 0.01 µM: 25.3 ± 3.8%
Lung cancer A549 cells; A549, 30 nmol/l, 48 h, read-out: Inhibition rate (%)
  inhibition at 0.03 µM: 44.2 ± 7.1%
Lung cancer A549 cells; A549, 100 nmol/l, 48 h, read-out: Inhibition rate (%)
  inhibition at 0.1 µM: 52.3 ± 8.3%
Lung cancer A549 cells; A549, 300 nmol/l, 48 h, read-out: Inhibition rate (%)
  inhibition at 0.3 µM: 63.8 ± 7.9%
Lung cancer A549 cells; A549, 48 h
  IC50: 78.8 nM
[4]; HL60, 1 nmol/l, 48 h, read-out: Inhibition rate (%)
  inhibition at 0.001 µM: 1.6 ± 0.1%
[4]; HL60, 3 nmol/l, 48 h, read-out: Inhibition rate (%)
  inhibition at 0.003 µM: 4.4 ± 0.7%
[4]; HL60, 10 nmol/l, 48 h, read-out: Inhibition rate (%)
  inhibition at 0.01 µM: 33.8 ± 6.1%
[4]; HL60, 30 nmol/l, 48 h, read-out: Inhibition rate (%)
  inhibition at 0.03 µM: 52.4 ± 8%
[4]; HL60, 100 nmol/l, 48 h, read-out: Inhibition rate (%)
  inhibition at 0.1 µM: 88.7 ± 9.8%
[4]; HL60, 300 nmol/l, 48 h, read-out: Inhibition rate (%)
  inhibition at 0.3 µM: 98 ± 10.2%
[4]; HL60, 48 h
  IC50: 21.1 nM
[5]
  LD50 at 7 days: 2 mg/kg
[6]; after 14 days, versus control group
  tumor inhibition rate: 21.8%
[6]; treatment day 0 (prior to administration)
  Tumor volume (mm^3): 410.5 ± 75.3 mm^3
[6]; treatment day 2
  Tumor volume (mm^3): 1055.8 ± 203.0 mm^3
[6]; treatment day 4
  Tumor volume (mm^3): 1621.0 ± 303.8 mm^3
[6]; treatment day 6
  Tumor volume (mm^3): 2215.9 ± 338.1* mm^3
[6]; treatment day 8
  Tumor volume (mm^3): 2115.7 ± 349.7* mm^3
[6]; treatment day 10
  Tumor volume (mm^3): 2565.4 ± 385.2* mm^3
[6]; treatment day 12
  Tumor volume (mm^3): 2691.9 ± 407.1* mm^3
[6]; treatment day 14, 1 mg/kg
  Tumor volume (mm^3): 3205.6±711.5 mm^3
[6]; treatment day 14, listed as Bufalin, 1 mg/kg
  Tumor volume (mm^3): 3205.6 ± 711.5* mm^3
[7]; observed 35 days, 1 mg/kg
  Average survival time: 22.8 ± 3.1 days
[7]; versus control group
  Life extension rate (%): 36.5%
[8]
  amount of bufalin tolerated by an adult patient every day: up to 2.3 μg

Reference: patent US9814734B2, “Bufalin liposome, preparation method therefor and application thereof” (THE FOURTH MILITARY MEDICAL UNIVERSITY, priority 2012, dated 2017)
